Reference: ChEMBL document CHEMBL5584343, “Cerastecin Inhibition of the Lipooligosaccharide Transporter MsbA to Combat Acinetobacter baumannii: From Screening Impurity to In Vivo Efficacy” (J Med Chem, 2024)
Values after ≈ are worked out from the molar mass of the structure shown. Each block holds one compound with its values, some of them ahead of it.

How the values were obtained:
[1] = test system: Acinetobacter baumannii; assay: Antibacterial activity against Acinetobacter baumannii ATCC19606 incubated for 18 to 20 hrs in presence of 1% of human serum by microbroth dilution method; type: functional; details: time 18-20 hrs
[2] = Inhibition of wildtype Acinetobacter baumannii MsbA preincubated for 30 mins followed by ATP addition and measured after 1 hrs by Transcreener ADP2 F1 assay
[3] = test system: Acinetobacter baumannii; assay: Antibacterial activity against Acinetobacter baumannii ATCC19606 assessed as bacterial growth inhibition incubated for 18 to 20 hrs by microbroth dilution method; type: functional; details: time 18-20 hrs
[4] = test system: Acinetobacter baumannii; assay: Selectivity ratio of MIC95 for antibacterial activity against Acinetobacter baumannii ATCC19606 in the presence of 1% human serum to MIC95 for antibacterial activity against Acinetobacter baumannii ATCC19606; type: functional

Compound: O=C(CCC(=O)Nc1ccc(NS(=O)(=O)c2ccc(Oc3ccccc3)nc2)c(C(=O)O)c1)Nc1ccc(NS(=O)(=O)c2ccc(Oc3ccccc3)nc2)c(C(=O)O)c1
MIC95 [1]: 6.25 µM
EC50 [2]: 136 nM
MIC95 [3]: 0.196 µM (≈ 0.167 µg/mL)
Selectivity ratio [4]: 32

Compound: CCCCc1ccc(S(=O)(=O)Nc2ccc(NC(=O)CCC(=O)Nc3ccc(NS(=O)(=O)c4ccccc4)c(C(=O)O)c3)cc2C(=O)O)cc1
MIC95 [1]: 12.5 µM
EC50 [2]: 311 nM
MIC95 [3]: 0.782 µM (≈ 0.565 µg/mL)
Selectivity ratio [4]: 16

Compound: CCCCc1ccc(S(=O)(=O)Nc2ccc(C(=O)NCCNC(=O)c3ccc(NS(=O)(=O)c4ccc(CCCC)cc4)c(C(=O)O)c3)cc2C(=O)O)cc1
MIC95 [1]: > 200 µM
EC50 [2]: > 198000 nM
MIC95 [3]: > 200 µM

Compound: CCCCc1ccc(S(=O)(=O)Nc2ccc(NC(=O)CCC(=O)Nc3ccc(NS(=O)(=O)c4ccc(CCCC)cc4)c(C(N)=O)c3)cc2C(N)=O)cc1
MIC95 [1]: > 200 µM
EC50 [2]: 512 nM
MIC95 [3]: > 200 µM

Compound: CCCCc1ccc(S(=O)(=O)Nc2ccc(NC(=O)CCC(=O)Nc3ccc(NS(=O)(=O)c4ccc(CCCC)cc4)c(S(=O)(=O)O)c3)cc2C(=O)O)cc1
MIC95 [1]: 12.5 µM
EC50 [2]: 37 nM
MIC95 [3]: 0.196 µM (≈ 0.16 µg/mL)
Selectivity ratio [4]: 64

Compound: CCCCc1ccc(S(=O)(=O)N(C)c2ccc(NC(=O)CCC(=O)Nc3ccc(N(C)S(=O)(=O)c4ccc(CCCC)cc4)c(C(=O)O)c3)cc2C(=O)O)cc1
MIC95 [1]: > 200 µM
EC50 [2]: > 198000 nM
MIC95 [3]: > 200 µM

Compound: CCCCc1ccc(S(=O)(=O)Nc2ccc(NC(=O)CCC(=O)Nc3ccc(NS(=O)(=O)c4ccc(CCCC)cc4)c(C(=O)O)c3)cc2)cc1
MIC95 [1]: > 200 µM
EC50 [2]: 790 nM
MIC95 [3]: 0.781 µM (≈ 0.574 µg/mL)
Selectivity ratio [4]: >256

Compound: CCCCc1ccc(S(=O)(=O)Nc2ccc(NCCCCNc3ccc(NS(=O)(=O)c4ccc(CCCC)cc4)c(C(=O)O)c3)cc2C(=O)O)cc1
MIC95 [1]: 12.5 µM
EC50 [2]: 623 nM
MIC95 [3]: 0.783 µM (≈ 0.588 µg/mL)
Selectivity ratio [4]: 16

Compound: CCCCc1ccc(S(=O)(=O)Nc2ccc(NC(=O)CCNC(=O)c3ccc(NS(=O)(=O)c4ccc(CCCC)cc4)c(C(=O)O)c3)cc2C(=O)O)cc1
MIC95 [1]: 11.3 µM
EC50 [2]: 83 nM
MIC95 [3]: 0.112 µM (≈ 0.0872 µg/mL)
Selectivity ratio [4]: 101

Compound: CCCCc1ccc(S(=O)(=O)Nc2ccc(NC(=O)CCC(=O)Nc3ccc(NS(=O)(=O)c4ccc(CCCC)cc4)c(C(=O)NC)c3)cc2C(=O)O)cc1
MIC95 [1]: > 200 µM
EC50 [2]: 765 nM
MIC95 [3]: > 200 µM

Compound: CCCCc1ccc(S(=O)(=O)Nc2ccc(NC(=O)CCC(=O)Nc3ccc(NS(=O)(=O)c4ccc(CCCC)cc4)c(C(=O)O)c3)cc2CC(=O)O)cc1
MIC95 [1]: 25 µM
EC50 [2]: 967 nM
MIC95 [3]: 0.196 µM (≈ 0.155 µg/mL)
Selectivity ratio [4]: 128

Compound: CCCCc1ccc(C(=O)Nc2ccc(NC(=O)CCC(=O)Nc3ccc(NS(=O)(=O)c4ccc(CCCC)cc4)c(C(=O)O)c3)cc2C(=O)O)cc1
MIC95 [1]: > 200 µM
EC50 [2]: > 198000 nM
MIC95 [3]: > 200 µM

Compound: CCCCc1ccc(S(=O)(=O)Nc2ccc(NC(=O)/C=C\C(=O)Nc3ccc(NS(=O)(=O)c4ccc(CCCC)cc4)c(C(=O)O)c3)cc2C(=O)O)cc1
MIC95 [1]: 8.84 µM
EC50 [2]: 27 nM
MIC95 [3]: 0.277 µM (≈ 0.215 µg/mL)
Selectivity ratio [4]: 32

Compound: CCCCc1ccc(S(=O)(=O)Nc2ccc(NC(=O)CCC(=O)Nc3ccc(NS(=O)(=O)c4ccc(CCCC)nc4)c(C(=O)O)c3)cc2C(=O)O)cc1
MIC95 [1]: 12.5 µM
EC50 [2]: 64 nM
MIC95 [3]: 0.196 µM (≈ 0.153 µg/mL)
Selectivity ratio [4]: 64

The next lines start with results.

MIC95 [1]: 1.56 µM
EC50 [2]: 308 nM
MIC95 [3]: 0.277 µM (≈ 0.212 µg/mL)
Compound: CCCCc1ccc(S(=O)(=O)Nc2ccc(CNCCC(=O)Nc3ccc(NS(=O)(=O)c4ccc(CCCC)cc4)c(C(=O)O)c3)cc2C(=O)O)cc1
Selectivity ratio [4]: 5.6

MIC95 [1]: > 200 µM
EC50 [2]: > 198000 nM
MIC95 [3]: > 200 µM
Compound: CCCCc1ccc(S(=O)(=O)Nc2ccc(NC(=O)CCC(=O)Nc3ccc(NS(=O)(=O)c4ccc(CCCC)cc4)c(C(=O)OCC)c3)cc2C(=O)OCC)cc1

MIC95 [1]: 25 µM
EC50 [2]: 291 nM
MIC95 [3]: 0.553 µM (≈ 0.444 µg/mL)
Compound: CCCCc1ccc(S(=O)(=O)Nc2ccc(NC(=O)CCC(=O)Nc3ccc(NS(=O)(=O)c4ccc(CCCC)cc4)c(-c4nn[nH]n4)c3)cc2C(=O)O)cc1
Selectivity ratio [4]: 45

MIC95 [1]: 25 µM
EC50 [2]: 626 nM
MIC95 [3]: 1.56 µM (≈ 1.17 µg/mL)
Compound: CCCCc1ccc(S(=O)(=O)Nc2ccc(NC(=O)CCC(=O)Nc3ccc(NS(=O)(=O)c4ccc(CCCC)cc4)c(C(=O)O)c3)cc2O)cc1
Selectivity ratio [4]: 16

MIC95 [1]: 25 µM
EC50 [2]: 416 nM
MIC95 [3]: 1.56 µM (≈ 1.27 µg/mL)
Compound: CCCCc1ccc(S(=O)(=O)Nc2ccc(NC(=O)CCC(=O)Nc3ccc(NS(=O)(=O)c4ccc(CCCC)cc4)c(P(=O)(O)O)c3)cc2C(=O)O)cc1
Selectivity ratio [4]: 16

MIC95 [1]: > 200 µM
EC50 [2]: 1600 nM
MIC95 [3]: > 200 µM
Compound: CCCCc1ccc(S(=O)(=O)Nc2ccc(NC(=O)CCC(=O)Nc3ccc(NS(=O)(=O)c4ccc(CCCC)cc4)c(C(=O)O)c3)cc2C#N)cc1

MIC95 [1]: 25 µM
EC50 [2]: 188 nM
MIC95 [3]: 1.56 µM (≈ 1.26 µg/mL)
Compound: CCCCc1ccc(S(=O)(=O)Nc2ccc(NC(=O)CCC(=O)Nc3ccc(NS(=O)(=O)c4ccc(N5CCOCC5)nc4)c(C(=O)O)c3)cc2C(=O)O)cc1
Selectivity ratio [4]: 16

MIC95 [1]: 25 µM
EC50 [2]: 82 nM
MIC95 [3]: 2.21 µM (≈ 1.73 µg/mL)
Compound: CCCCc1ccc(S(=O)(=O)Nc2ccc(NC(=O)CCC(=O)Nc3ccc(NS(=O)(=O)c4ccc(CCCC)nc4)c(C(=O)O)c3)cc2C(=O)O)cn1
Selectivity ratio [4]: 11

MIC95 [1]: 12.5 µM
EC50 [2]: 124 nM
MIC95 [3]: 0.391 µM (≈ 0.305 µg/mL)
Compound: CCCCc1ccc(S(=O)(=O)Nc2ccc(NC(=O)CCC(=O)Nc3ccc(NS(=O)(=O)c4ccc(CCCC)cc4)c(C(=O)O)c3)c(C(=O)O)c2)cc1
Selectivity ratio [4]: 32

MIC95 [1]: > 200 µM
EC50 [2]: > 22100 nM
MIC95 [3]: 1.1 µM (≈ 0.874 µg/mL)
Compound: CCCCc1ccc(S(=O)(=O)Nc2ccc(NC(=O)[C@H]3C[C@@H]3C(=O)Nc3ccc(NS(=O)(=O)c4ccc(CCCC)cc4)c(C(=O)O)c3)cc2C(=O)O)cc1 (racemic)
Selectivity ratio [4]: >181

MIC95 [1]: > 200 µM
EC50 [2]: > 66200 nM
MIC95 [3]: > 200 µM
Compound: CCCCc1ccc(S(=O)(=O)Nc2ccc(NC(=O)CCC(=O)Nc3ccc(N)c(C(=O)O)c3)cc2C(=O)O)cc1

MIC95 [1]: > 200 µM
EC50 [2]: 32400 nM
MIC95 [3]: > 200 µM
Compound: CCCCc1ccc(S(=O)(=O)Nc2ccc(NC(=O)CCC(=O)Nc3cccc(C(=O)O)c3)cc2C(=O)O)cc1

MIC95 [1]: 6.25 µM
EC50 [2]: 16 nM
MIC95 [3]: 0.069 µM (≈ 0.0528 µg/mL)
Compound: CCCCc1ccc(S(=O)(=O)Nc2ccc(NC(=O)CCCOc3ccc(NS(=O)(=O)c4ccc(CCCC)cc4)c(C(=O)O)c3)cc2C(=O)O)cc1
Selectivity ratio [4]: 91

MIC95 [1]: 25 µM
EC50 [2]: > 198000 nM
MIC95 [3]: 3.12 µM (≈ 2.34 µg/mL)
Compound: CCCCc1ccc(S(=O)(=O)Nc2ccc(NC/C=C\CNc3ccc(NS(=O)(=O)c4ccc(CCCC)cc4)c(C(=O)O)c3)cc2C(=O)O)cc1
Selectivity ratio [4]: 8

MIC95 [1]: 200 µM
EC50 [2]: 6400 nM
MIC95 [3]: 100 µM (≈ 66.1 µg/mL)
Compound: CCCCc1ccc(S(=O)(=O)Nc2ccc(NC(=O)CCC(=O)Nc3ccc(NS(C)(=O)=O)c(C(=O)O)c3)cc2C(=O)O)cc1
Selectivity ratio [4]: 2

MIC95 [1]: > 200 µM
EC50 [2]: > 198000 nM
MIC95 [3]: > 200 µM
Compound: CCCCc1ccc(S(=O)(=O)Nc2ccc(N(C)C(=O)CCC(=O)N(C)c3ccc(NS(=O)(=O)c4ccc(CCCC)cc4)c(C(=O)O)c3)cc2C(=O)O)cc1

MIC95 [1]: 4.42 µM
EC50 [2]: 47 nM
MIC95 [3]: 0.069 µM (≈ 0.0563 µg/mL)
Compound: CCCCc1ccc(S(=O)(=O)Nc2ccc(NC(=O)CCC(=O)Nc3ccc(NS(=O)(=O)c4ccc(Oc5ccccc5)nc4)c(C(=O)O)c3)cc2C(=O)O)cc1
Selectivity ratio [4]: 64

MIC95 [1]: 25 µM
EC50 [2]: 92 nM
MIC95 [3]: 1.56 µM (≈ 1.18 µg/mL)
Compound: CCCCc1ccc(S(=O)(=O)Nc2ccc(NC(=O)CCC(=O)Nc3ccc(NS(=O)(=O)c4ccc(OC)nc4)c(C(=O)O)c3)cc2C(=O)O)cc1
Selectivity ratio [4]: 16

MIC95 [1]: 200 µM
EC50 [2]: 1790 nM
MIC95 [3]: 25 µM (≈ 19.5 µg/mL)
Compound: CCCCc1ccc(S(=O)(=O)Nc2ccc(NC(=O)CCC(=O)Nc3ccc(NS(=O)(=O)c4ccc(CCCC)cn4)c(C(=O)O)c3)cc2C(=O)O)nc1
Selectivity ratio [4]: 8

MIC95 [1]: > 200 µM
EC50 [2]: 1170 nM
MIC95 [3]: > 200 µM
Compound: CCCCc1ccc(S(=O)(=O)Nc2ccc(NC(=O)CCC(=O)Nc3ccc(NS(=O)(=O)c4ccc(CCCC)cc4)c(C(=O)O)c3)cc2F)cc1
